How the values were obtained:
HEK293 cells [1] = experiment: Preliminary screening as mRNA vectors, EGFP mRNA transfection of HEK293 cells; format: cell-based; conditions: HEK293 cells, 96-well plates, EGFP mRNA 50 ng per well; percentage of GFP fluorescent cells relative to total number of cells (Hoechst)
Procedure, shortened: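 Each well of HEK293 cells received 50 ng of EGFP mRNA. Efficiency was expressed as percent GFP-expressing cells over Hoechst-defined total cell number.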

HEK293 cells [2] = experiment: Preliminary screening as DNA vectors, GFP transfection of HEK293 cells; format: cell-based; conditions: HEK293 cells; lipid/DOPE liposome with 75 ng plasmid DNA (psin-EGFP-IRES-Puro); number of cells expressing GFP divided by total number of nuclei (Hoechst)
Procedure, shortened: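 Lipid + DOPE liposomes (NaOAc, pH 5.6) complexed w/ 75 ng psin-EGFP-IRES-Puro, 30 min RT; added to 3-5×10^4 HEK293/well, 37° C. Hoechst 0.2 μg/mL at 20-24 h, imaged after further 20-24 h. Efficiency = GFP+ cells / total nuclei.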

## CCCCCCCCCCCCCCCCNc1nc(NCCCCCCCCC)nc(NCC2CCN(C)CC2)n1 [Compound N9N16D10]
HEK293 cells [1]
  Absolute mRNA transfection efficiency in HEK293 cells: 1.2%
HEK293 cells [2]
  Absolute DNA transfection efficiency in HEK293 cells: 4.8%

## CCCCCCCCCCCCCCCCNc1nc(NCCCCCCCCCCCCCCCC)nc(NCC2CCN(C)CC2)n1 [Compound N16N16D10]
HEK293 cells [1]
  Absolute mRNA transfection efficiency in HEK293 cells: 0.0%
HEK293 cells [2]
  Absolute DNA transfection efficiency in HEK293 cells: 0.0%

## CCCCCCCCCCCCCCSc1nc(NCCN2CCOCC2)nc(SCCCCCCCCCC)n1 [Compound S10S14D2]
HEK293 cells [1]
  Absolute mRNA transfection efficiency in HEK293 cells: 0.2%
HEK293 cells [2]
  Absolute DNA transfection efficiency in HEK293 cells: 1.5%

## CCCCCCCCCCCCCCCCNc1nc(NCCCCCCCCCCCCCCCC)nc(NCCN2CCN(C)CC2)n1 [Compound N16N16D5]
HEK293 cells [1]
  Absolute mRNA transfection efficiency in HEK293 cells: 0.0%
HEK293 cells [2]
  Absolute DNA transfection efficiency in HEK293 cells: 0.0%

## CCCCCCCCCCCCCCCCCCNc1nc(NCCCCCCCCCCCCCCCC)nc(NCCCN2CCOCC2)n1 [Compound N16N18D8]
HEK293 cells [1]
  Absolute mRNA transfection efficiency in HEK293 cells: 1.0%
HEK293 cells [2]
  Absolute DNA transfection efficiency in HEK293 cells: 0.0%

## CCCCCCCCCCCCCCCCCCNc1nc(NCCCCCCCCCCCCC)nc(NCCN2CCOCC2)n1 [Compound N13N18D2]
HEK293 cells [1]
  Absolute mRNA transfection efficiency in HEK293 cells: 0.0%
HEK293 cells [2]
  Absolute DNA transfection efficiency in HEK293 cells: 0.2%

## CCCCCCCCCCCCCCCCCCNc1nc(NCCCCCCCCCCC)nc(NCCN(CC)CC)n1 [Compound N11N18D7]
HEK293 cells [1]
  Absolute mRNA transfection efficiency in HEK293 cells: 4.0%
HEK293 cells [2]
  Absolute DNA transfection efficiency in HEK293 cells: 1.1%

## CCCCCCCCCCCCCNc1nc(NCCCCCCCC)nc(NCCCN(C)C)n1 [Compound N8N13D6]
HEK293 cells [1]
  Absolute mRNA transfection efficiency in HEK293 cells: 0.0%
HEK293 cells [2]
  Absolute DNA transfection efficiency in HEK293 cells: 0.0%

## CCCCCCCCCCCSc1nc(NCC2CCN(C)CC2)nc(SCCCCCCCCC)n1 [Compound S9S11D10]
HEK293 cells [1]
  Absolute mRNA transfection efficiency in HEK293 cells: 88.8%
HEK293 cells [2]
  Absolute DNA transfection efficiency in HEK293 cells: 32.8%

## CCCCCCCCCCCCCCCCCCSc1nc(NCC2CCN(C)CC2)nc(SCCCCCCCC)n1 [Compound S8S18D10]
HEK293 cells [1]
  Absolute mRNA transfection efficiency in HEK293 cells: 59.6%
HEK293 cells [2]
  Absolute DNA transfection efficiency in HEK293 cells: 19.3%

## CCCCCCCCCCCCCCCCCCNc1nc(NCCCCCCCCCCCCCCC)nc(NCC2CCN(C)CC2)n1 [Compound N15N18D10]
HEK293 cells [1]
  Absolute mRNA transfection efficiency in HEK293 cells: 7.4%
HEK293 cells [2]
  Absolute DNA transfection efficiency in HEK293 cells: 3.5%

## CCCCCCCCCCCCCCCNc1nc(NCCCCCCCCC)nc(NCCN(CC)CC)n1 [Compound N9N15D7]
HEK293 cells [1]
  Absolute mRNA transfection efficiency in HEK293 cells: 0.8%
HEK293 cells [2]
  Absolute DNA transfection efficiency in HEK293 cells: 0.0%

## CCCCCCCCCCCSc1nc(NCCCN2CCN(C)CC2)nc(SCCCCCCCCCCC)n1 [Compound S11S11D9]
HEK293 cells [1]
  Absolute mRNA transfection efficiency in HEK293 cells: 8.0%
HEK293 cells [2]
  Absolute DNA transfection efficiency in HEK293 cells: 4.3%

## CCCCCCCCCCCCCCCNc1nc(NCCCCCCCC)nc(NCCN2CCOCC2)n1 [Compound N8N15D2]
HEK293 cells [1]
  Absolute mRNA transfection efficiency in HEK293 cells: 0.0%
HEK293 cells [2]
  Absolute DNA transfection efficiency in HEK293 cells: 0.0%

## CCCCCCNc1nc(NCCCCCC)nc(NCCCN2CCN(C)CC2)n1 [Compound N6N6D9]
HEK293 cells [1]
  Absolute mRNA transfection efficiency in HEK293 cells: 0.2%
HEK293 cells [2]
  Absolute DNA transfection efficiency in HEK293 cells: 0.0%

## CCCCCCCCCCCCCNc1nc(NCCCCCC)nc(NCCCN2CCN(C)CC2)n1 [Compound N6N13D9]
HEK293 cells [1]
  Absolute mRNA transfection efficiency in HEK293 cells: 0.0%
HEK293 cells [2]
  Absolute DNA transfection efficiency in HEK293 cells: 0.0%

## CCCCCCCCCCCCCCCCNc1nc(NCCCCCCCCCCCCCCCC)nc(NCCCN(C)C)n1 [Compound N16N16D6]
HEK293 cells [1]
  Absolute mRNA transfection efficiency in HEK293 cells: 0.0%
HEK293 cells [2]
  Absolute DNA transfection efficiency in HEK293 cells: 0.9%

## CCCCCCCCCCCCCCCNc1nc(NCCCCCCCCCCC)nc(NCC2CCN(C)CC2)n1 [Compound N11N15D10]
HEK293 cells [1]
  Absolute mRNA transfection efficiency in HEK293 cells: 1.6%
HEK293 cells [2]
  Absolute DNA transfection efficiency in HEK293 cells: 0.4%

## CCCCCCCCCCCCCCCCCCSc1nc(NCCN2CCN(C)CC2)nc(SCCCCCCCCCCC)n1 [Compound S11S18D5]
HEK293 cells [1]
  Absolute mRNA transfection efficiency in HEK293 cells: 3.8%
HEK293 cells [2]
  Absolute DNA transfection efficiency in HEK293 cells: 1.7%

## CCCCCCCCCCCCCCCCCCNc1nc(NCCCCCCCCCCC)nc(NCC2CCN(C)CC2)n1 [Compound N11N18D10]
HEK293 cells [1]
  Absolute mRNA transfection efficiency in HEK293 cells: 1.6%
HEK293 cells [2]
  Absolute DNA transfection efficiency in HEK293 cells: 0.2%

## CCCCCCCCCCCCNc1nc(NCCCCCCCC)nc(NCCN(CC)CC)n1 [Compound N8N12D7]
HEK293 cells [1]
  Absolute mRNA transfection efficiency in HEK293 cells: 0.0%
HEK293 cells [2]
  Absolute DNA transfection efficiency in HEK293 cells: 0.0%

## CCCCCCCCCCCCNc1nc(NCCCCCCCCC)nc(NCCN(CC)CC)n1 [Compound N9N12D7]
HEK293 cells [1]
  Absolute mRNA transfection efficiency in HEK293 cells: 0.0%
HEK293 cells [2]
  Absolute DNA transfection efficiency in HEK293 cells: 0.0%

## CCCCCCCCCCCCCCCCCCNc1nc(NCCCCCCCCCCCCCCCC)nc(NCCN2CCCC2)n1 [Compound N16N18D3]
HEK293 cells [1]
  Absolute mRNA transfection efficiency in HEK293 cells: 20.8%
HEK293 cells [2]
  Absolute DNA transfection efficiency in HEK293 cells: 0.4%
